“And” between values parts separate entries of the source, which are not always exact repeats. Equal values may be shown once.
Legend:
Test in all cases: microbe, parasite or virus in culture
Set-up in all cases: species or system Staphylococcus aureus clinical blood isolates and ATCC 29213; Broth microdilution MIC in cation-adjusted Mueller-Hinton broth with 50 ug/mL CaCl2, EUCAST reading, 37 C
[1] = test system: T1, Staphylococcus aureus PB0911; settings: PB0911, 16 h, replicate MIC, MHB + 50 ug/mL CaCl2
T1 construct: PB0911
Protocol: (§1) MICs were measured in cation-adjusted Mueller-Hinton broth (MHB) supplemented with 50 μg/mL CaCl2 (MHB-Ca^2+) via broth microdilution in 96-well plates with an inoculum of ∼5 × 10^5 CFU per mL. Antibiotic test concentrations ranged from 0.0625 μg/mL to 32 μg/mL by 2-fold dilutions. Plates were incubated at 37°C for 16 h without shaking, and results were interpreted in accordance with European Committee on Antimicrobial Susceptibility Testing reading guidelines ([72]). S. aureus ATCC 29213 was used as a quality-control strain.

[2] = test system: T2, Staphylococcus aureus PB0702; settings: PB0702, 16 h, replicate MIC, MHB + 50 ug/mL CaCl2
T2 construct: PB0702
Protocol: as §1

[3] = test system: T3, Staphylococcus aureus PB1802; settings: PB1802, 16 h, replicate MIC, MHB + 50 ug/mL CaCl2
T3 construct: PB1802
Protocol: as §1

[4] = test system: T4, Staphylococcus aureus PB1405; settings: PB1405, 16 h, replicate MIC, MHB + 50 ug/mL CaCl2
T4 construct: PB1405
Protocol: as §1

[5] = test system: T5, Staphylococcus aureus PB0207; settings: PB0207, 16 h, replicate MIC, MHB + 50 ug/mL CaCl2
T5 construct: PB0207
Protocol: as §1

[6] = test system: T6, Staphylococcus aureus PB0701; settings: PB0701, 16 h, replicate MIC, MHB + 50 ug/mL CaCl2
T6 construct: PB0701
Protocol: as §1

[7] = test system: T7, Staphylococcus aureus PB0804; settings: PB0804, 16 h, replicate MIC, MHB + 50 ug/mL CaCl2
T7 construct: PB0804
Protocol: as §1

[8] = test system: T8, Staphylococcus aureus PB0208; settings: PB0208, 16 h, replicate MIC, MHB + 50 ug/mL CaCl2
T8 construct: PB0208
Protocol: as §1

[9] = test system: T9, Staphylococcus aureus PB1803; settings: PB1803, 16 h, replicate MIC, MHB + 50 ug/mL CaCl2
T9 construct: PB1803
Protocol: as §1

[10] = test system: T10, Staphylococcus aureus PB1406; settings: PB1406, 16 h, replicate MIC, MHB + 50 ug/mL CaCl2
T10 construct: PB1406
Protocol: as §1

Structure (SMILES)	MIC [1]	MIC [2] [µg/mL]	MIC [3] [µg/mL]	MIC [4]	MIC [5]	MIC [6]	MIC [7] [µg/mL]	MIC [8] [µg/mL]	MIC [9] [µg/mL]	MIC [10] [µg/mL]
CCO/N=C(\C(=O)N[C@@H]1C(=O)N2C(C(=O)[O-])=C(Sc3nc(-c4cc[n+](C)cc4)cs3)CS[C@H]12)c1nsc(N)n1 [Ceftaroline]	0.5 µg/mL	0.5	0.5	0.25 µg/mL	0.5 µg/mL	0.25 µg/mL	0.5	0.5	0.5	0.25
CCCCCCCCCC(=O)N[C@@H](Cc1c[nH]c2ccccc12)C(=O)N[C@H](CC(N)=O)C(=O)N[C@@H](CC(=O)O)C(=O)N[C@@H]1C(=O)NCC(=O)N[C@@H](CCCN)C(=O)N[C@@H](CC(=O)O)C(=O)N[C@H](C)C(=O)N[C@@H](CC(=O)O)C(=O)NCC(=O)N[C@H](CO)C(=O)N[C@@H]([C@H](C)CC(=O)O)C(=O)N[C@@H](CC(=O)c2ccccc2N)C(=O)O[C@@H]1C [Daptomycin]	2 µg/mL and 1 µg/mL	2	2	2 µg/mL and 1 µg/mL	1 µg/mL	1 µg/mL and 2 µg/mL	1	1	2	1
CC(=O)NC[C@H]1CN(c2ccc(N3CCOCC3)c(F)c2)C(=O)O1 [Linezolid]	4 µg/mL	4	4	4 µg/mL	4 µg/mL	4 µg/mL	2	4	4	4
CN[C@H](CC(C)C)C(=O)N[C@H]1C(=O)N[C@@H](CC(N)=O)C(=O)N[C@H]2C(=O)N[C@H]3C(=O)N[C@H](C(=O)N[C@H](C(=O)O)c4cc(O)cc(O)c4-c4cc3ccc4O)[C@H](O)c3ccc(c(Cl)c3)Oc3cc2cc(c3O[C@@H]2O[C@H](CO)[C@@H](O)[C@H](O)[C@H]2O[C@H]2C[C@](C)(N)[C@H](O)[C@H](C)O2)Oc2ccc(cc2Cl)[C@H]1O [Vancomycin]	2 µg/mL	2	2	2 µg/mL	2 µg/mL and 1 µg/mL	2 µg/mL	2	4	2	2

Reference: article PMC9022596, “Convergent Evolution of Antibiotic Tolerance in Patients with Persistent Methicillin-Resistant Staphylococcus aureus Bacteremia” (Infection and Immunity, 2022)
